This is an account of results in publication PMC7034394 (Journal of medicinal chemistry, 2019).

Broadly, the bioavailability is the share of a dose that reaches the circulation, judged against a reference dose that is usually intravenous.

Entries after “also recorded” stand apart in the source; their conditions may differ. Bounds are passed on as bounds.

For series [1], the target named is T1, slc26a3 (DRA) (Mus musculus, UniProt Q9WVC8).
T1 sequence (Q9WVC8 1-757): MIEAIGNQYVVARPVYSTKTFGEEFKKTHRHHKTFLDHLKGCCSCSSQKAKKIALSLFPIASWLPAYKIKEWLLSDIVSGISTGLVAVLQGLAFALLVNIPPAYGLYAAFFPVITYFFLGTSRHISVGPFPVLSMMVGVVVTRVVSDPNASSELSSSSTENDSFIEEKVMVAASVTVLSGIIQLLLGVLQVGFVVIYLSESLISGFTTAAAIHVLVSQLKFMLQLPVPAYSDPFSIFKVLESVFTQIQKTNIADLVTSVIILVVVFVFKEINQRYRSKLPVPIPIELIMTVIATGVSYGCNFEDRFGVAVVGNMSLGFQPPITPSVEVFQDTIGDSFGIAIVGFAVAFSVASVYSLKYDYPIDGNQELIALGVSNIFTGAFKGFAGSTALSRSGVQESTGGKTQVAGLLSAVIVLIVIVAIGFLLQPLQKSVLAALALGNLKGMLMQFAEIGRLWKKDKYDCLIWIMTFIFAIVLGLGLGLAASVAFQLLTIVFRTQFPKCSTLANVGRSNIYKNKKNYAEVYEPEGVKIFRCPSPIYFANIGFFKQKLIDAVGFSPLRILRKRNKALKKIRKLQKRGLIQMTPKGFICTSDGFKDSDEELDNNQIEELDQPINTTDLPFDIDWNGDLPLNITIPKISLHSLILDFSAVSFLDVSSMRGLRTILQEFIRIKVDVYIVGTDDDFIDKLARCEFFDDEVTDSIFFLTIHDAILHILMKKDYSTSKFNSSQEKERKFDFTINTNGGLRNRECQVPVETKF
It is filed as cell-based, murine. The conditions noted are these: for slc26a3 inhibition at 5 μM: 5 μM compound.

Series [2] deals with loperamide-treated mice. The experiment in a line: Loperamide-induced constipation model in mice. It is filed as in vivo. The note with it: for Stool water content: 3 h stool.
Series [3] has as its target T2, slc26a4 (pendrin) (Mus musculus, UniProt Q9R155).
T2 sequence (Q9R155 1-780): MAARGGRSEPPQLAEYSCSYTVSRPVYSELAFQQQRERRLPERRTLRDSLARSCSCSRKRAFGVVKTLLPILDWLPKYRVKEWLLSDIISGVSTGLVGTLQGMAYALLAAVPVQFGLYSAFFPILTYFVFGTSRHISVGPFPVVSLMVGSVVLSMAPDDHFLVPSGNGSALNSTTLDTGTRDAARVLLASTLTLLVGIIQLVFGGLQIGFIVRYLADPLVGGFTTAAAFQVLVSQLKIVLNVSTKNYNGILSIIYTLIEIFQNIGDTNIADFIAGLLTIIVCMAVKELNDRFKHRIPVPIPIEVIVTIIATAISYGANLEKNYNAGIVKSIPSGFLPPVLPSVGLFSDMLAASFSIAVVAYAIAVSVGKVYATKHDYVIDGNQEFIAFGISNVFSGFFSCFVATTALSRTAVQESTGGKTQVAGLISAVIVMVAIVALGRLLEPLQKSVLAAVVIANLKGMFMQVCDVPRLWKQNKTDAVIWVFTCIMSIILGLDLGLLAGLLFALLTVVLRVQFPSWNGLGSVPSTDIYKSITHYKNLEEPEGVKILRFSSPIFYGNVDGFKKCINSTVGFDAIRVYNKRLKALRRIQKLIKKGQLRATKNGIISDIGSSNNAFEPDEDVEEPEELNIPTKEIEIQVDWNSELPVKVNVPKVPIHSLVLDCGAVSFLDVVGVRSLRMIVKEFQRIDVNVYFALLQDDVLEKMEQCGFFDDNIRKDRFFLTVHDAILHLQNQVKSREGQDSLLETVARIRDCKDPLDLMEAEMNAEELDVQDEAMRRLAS
It is filed as cell-based, murine. The conditions noted are these: 10 μM compound, 10 min preincubation.

The nature of series [4]: Pharmacokinetics in mice, serum concentration by LC/MS. The note with it: for bioavailability: mouse, serum, po. It is filed as in vivo.
Series [5] deals with T3, slc26a6 (PAT-1) (Mus musculus, UniProt Q8CIW6).
T3 sequence (Q8CIW6 1-758): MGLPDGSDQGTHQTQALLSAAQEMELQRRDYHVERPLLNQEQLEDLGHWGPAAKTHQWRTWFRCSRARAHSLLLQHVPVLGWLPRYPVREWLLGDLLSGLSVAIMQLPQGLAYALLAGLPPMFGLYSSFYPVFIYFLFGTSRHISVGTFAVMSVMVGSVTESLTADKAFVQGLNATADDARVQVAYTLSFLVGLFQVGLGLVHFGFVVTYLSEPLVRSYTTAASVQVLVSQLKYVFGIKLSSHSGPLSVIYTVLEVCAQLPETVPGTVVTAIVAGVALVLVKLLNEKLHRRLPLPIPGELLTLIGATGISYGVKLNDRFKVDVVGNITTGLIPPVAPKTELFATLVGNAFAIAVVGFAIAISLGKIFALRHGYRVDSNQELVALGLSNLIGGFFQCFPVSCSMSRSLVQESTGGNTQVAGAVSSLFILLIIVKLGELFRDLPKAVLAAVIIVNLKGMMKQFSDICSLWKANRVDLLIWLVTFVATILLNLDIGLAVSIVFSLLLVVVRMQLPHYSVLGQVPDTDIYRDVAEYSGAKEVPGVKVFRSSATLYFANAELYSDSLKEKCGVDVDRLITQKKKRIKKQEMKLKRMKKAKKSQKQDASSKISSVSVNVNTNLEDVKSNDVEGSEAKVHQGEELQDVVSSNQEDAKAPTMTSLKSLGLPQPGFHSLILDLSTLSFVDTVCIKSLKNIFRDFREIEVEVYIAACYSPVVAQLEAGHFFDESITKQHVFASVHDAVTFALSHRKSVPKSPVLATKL
It counts as cell-based, murine. The note with it: 10 μM compound, 10 min preincubation.

Series [6] concerns the target T4, SLC26A9 (Homo sapiens, UniProt Q7LBE3).
T4 sequence (Q7LBE3 1-791): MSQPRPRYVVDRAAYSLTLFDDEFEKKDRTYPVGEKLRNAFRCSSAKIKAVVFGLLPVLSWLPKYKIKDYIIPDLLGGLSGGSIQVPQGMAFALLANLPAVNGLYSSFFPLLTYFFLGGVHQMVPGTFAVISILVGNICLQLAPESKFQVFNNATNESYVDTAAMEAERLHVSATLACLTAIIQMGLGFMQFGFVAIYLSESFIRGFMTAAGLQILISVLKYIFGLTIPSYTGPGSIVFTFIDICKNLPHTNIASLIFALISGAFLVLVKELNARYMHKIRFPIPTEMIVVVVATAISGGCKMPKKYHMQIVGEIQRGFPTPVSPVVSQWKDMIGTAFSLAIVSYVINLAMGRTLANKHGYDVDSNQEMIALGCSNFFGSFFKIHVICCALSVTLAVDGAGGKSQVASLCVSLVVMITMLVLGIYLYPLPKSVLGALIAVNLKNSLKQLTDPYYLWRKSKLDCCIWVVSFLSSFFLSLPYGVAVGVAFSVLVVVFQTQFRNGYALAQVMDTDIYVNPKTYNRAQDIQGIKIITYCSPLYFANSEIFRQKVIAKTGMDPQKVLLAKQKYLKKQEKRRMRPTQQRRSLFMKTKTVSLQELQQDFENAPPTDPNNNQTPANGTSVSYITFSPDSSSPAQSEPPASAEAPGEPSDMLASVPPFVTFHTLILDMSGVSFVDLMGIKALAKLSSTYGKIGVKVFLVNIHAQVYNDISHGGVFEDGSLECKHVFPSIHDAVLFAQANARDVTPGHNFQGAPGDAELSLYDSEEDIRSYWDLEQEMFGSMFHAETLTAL
It is filed as cell-based. The conditions noted are these: 10 μM compound, 10 min preincubation.

Series [7] deals with loperamide-treated mice. The note with it: cited from earlier work.

As for `C=CCOc1ccc2c(C)c(CC(=O)O)c(=O)oc2c1C` [4aa], the “slc26a3 inhibition at 5 μM” value in series [1] was “no inhibition”.
Still for that read-out and setting: the result for `CCCOc1ccc2c(C)c(CC(=O)O)c(=O)oc2c1C` [4ad] reads “no inhibition”.
Still for that read-out and setting: the result for `Cc1c(CC(=O)O)c(=O)oc2c(C)c(OCCn3cccc3)ccc12` [4ap] reads “inactive”.
Still for that read-out and setting: under `Cc1cccc(S(=O)(=O)Oc2ccc3c(C)c(CC(=O)O)c(=O)oc3c2C)c1` [4aq] stands “no inhibition”; under `Cc1c(CC(=O)O)c(=O)oc2c(C)c(OS(=O)(=O)c3cccc(Cl)c3)ccc12` [4ar], “no inhibition”; under `Cc1c(CC(=O)O)c(=O)oc2c(C)c(OCCc3cccc(C(F)(F)F)c3)ccc12` [4as], “no inhibition”.
As to `Cc1c(CC(=O)O)c(=O)oc2c(C)c(OCc3cccc(I)c3)ccc12` [4az], in series [2] (control mice not treated with loperamide), the “Effect on stool parameters compared to vehicle” value is “no significant effect”. Moreover, the Stool water content result in series [2] (loperamide-treated mice, 3 mg/kg oral) is “fully normalized”; in series [2] (loperamide-treated mice, 10 mg/kg oral), “fully normalized”. In addition, the “Inhibition of chloride/iodide exchange, slc26a4 (pendrin)” value in series [3] is listed as “not significantly inhibited”. In series [4] (mice, single 10 mg/kg dose, oral (b1), oral or intraperitoneal), the “Duration of predicted therapeutic concentrations in serum” value is recorded as > 72 h. In series [4] (10 mg/kg), this compound yielded a bioavailability of 39 ± 4%. Also, the “Inhibition of chloride/iodide exchange, slc26a6 (PAT-1)” value in series [5] is on record as “not significantly inhibited”. Moreover, the “Extent of inhibition of slc26a3-mediated anion exchange” value in series [1] was “fully inhibited”. Besides, the “Inhibition of chloride/iodide exchange, SLC26A9” value in series [6] is on record as “not significantly inhibited”.
`Cc1c(CC(=O)O)c(=O)oc2c(C)c(OCc3cccc(Br)c3)ccc12` [4ba, 2-(7-((3-Bromobenzyl)oxy)-4,8-dimethyl-2-oxo-2H-chromen-3-yl)acetic Acid] yielded a bioavailability in series [4] (5 mg/kg) of 54 ± 6.5%. Besides, the “Efficacy in a mouse model of constipation” value in series [7] was “showed efficacy”.
`Cc1c(CC(=O)O)c(=O)oc2c(C)c(OCc3cccc(C(F)(F)F)c3)ccc12` [4be]: the “3 h stool weight, pellet number, and water content” value in series [2] (loperamide-treated mice, 5 mg/kg oral 1 h before loperamide, 5 mg/kg) is given as “partially prevented constipation; also recorded: improved”. The “Inhibition of chloride/iodide exchange, slc26a4 (pendrin)” value in series [3] was “not significantly inhibited”. For the same compound, the “Serum level at 16 h” value in series [4] (mice, single dose 5 mg/kg oral or intraperitoneal, 16 h) is “little compound remaining”. The compound further gave a bioavailability in series [4] (5 mg/kg) of 16 ± 7%. The “Inhibition of chloride/iodide exchange, slc26a6 (PAT-1)” value in series [5] was “not significantly inhibited”. For the same compound, the “Extent of inhibition of slc26a3-mediated anion exchange” value in series [1] was “fully inhibited”. The “Inhibition of chloride/iodide exchange, SLC26A9” value in series [6] is on record as “not significantly inhibited”.
Consider `Cc1c(OCc2cccc(Br)c2)ccc2cc(C(=O)O)c(=O)oc12` [8aa], for which, in series [1], the “slc26a3 inhibition activity, in words” value was “inactive”.
Consider `Cc1c(CC(N)=O)c(=O)oc2c(C)c(OCc3cccc(Br)c3)ccc12` [8ae], for which the “slc26a3 inhibition activity, in words” value in series [1] is listed as “much reduced inhibition”.
As for `COc1ccc2ccc(=O)oc2c1` [S3], the “slc26a3 inhibition activity, in words” value in series [1] was “inactive”.
